Species: Rattus norvegicus
Assay: DrugMatrix - Regimen: Daily Repeat
Assay type: toxicity, organism-based, Sprague-Dawley
Design: regimen Daily Repeat, gender Male, age 6-8 weeks
Conditions: in vivo, po, route oral GAVAGE, vehicle 100 % WATER; for BASOPHIL / EOSINOPHIL / ERYTHROCYTE COUNT / HEMATOCRIT / HEMOGLOBIN / LEUKOCYTE COUNT / LYMPHOCYTE / MEAN CORPUSCULAR HEMOGLOBIN / MEAN CORPUSCULAR HEMOGLOBIN CONCENTRATION / MEAN CORPUSCULAR VOLUME / MONOCYTE / NEUTROPHIL / PLATELET COUNT: tissue Blood; for ALANINE AMINOTRANSFERASE / ALBUMIN / ALKALINE PHOSPHATASE / ASPARTATE AMINOTRANSFERASE / BLOOD UREA NITROGEN / CHLORIDE / CHOLESTEROL / CREATINE PHOSPHOKINASE / CREATININE / GLUCOSE / PHOSPHORUS / POTASSIUM / SODIUM / TOTAL BILIRUBIN / TOTAL PROTEIN: tissue Plasma
[1] = 0 mg/kg, 72 h, dose level Control, time 3 day
[2] = 0 mg/kg, 120 h, dose level Control, time 5 day
[3] = 53.5 mg/kg, 72 h, dose level Low, time 3 day

## CN1C(=O)OC(C)(C)C1=O [TRIMETHADIONE]
[1]
  BASOPHIL: 0%
  EOSINOPHIL: 0.5%
  ERYTHROCYTE COUNT: 5.8 x10E6/uL
  HEMATOCRIT: 35.07%
  HEMOGLOBIN: 14.12 G/DL
  LEUKOCYTE COUNT: 13.7 x10E3/uL
  LYMPHOCYTE: 82.33%
  MEAN CORPUSCULAR HEMOGLOBIN: 24.38 pg
  MEAN CORPUSCULAR HEMOGLOBIN CONCENTRATION: 40.28 G/DL
  MEAN CORPUSCULAR VOLUME: 60.52 fL
  MONOCYTE: 2.67%
  NEUTROPHIL: 14.5%
  PLATELET COUNT: 911.5 x10E3/uL
  ALANINE AMINOTRANSFERASE: 36.83 u/L
  ALBUMIN: 3.75 G/DL
  ALKALINE PHOSPHATASE: 399.83 u/L
  ASPARTATE AMINOTRANSFERASE: 66 u/L
  BLOOD UREA NITROGEN: 14.67 mg/dL
  CHLORIDE: 101.67 MEQ/L
  CHOLESTEROL: 66.33 mg/dL
  CREATINE PHOSPHOKINASE: 139.5 u/L
  CREATININE: 0.92 mg/dL
  GLUCOSE: 175 mg/dL
  PHOSPHORUS: 11.42 mg/dL
  POTASSIUM: 7.03 MEQ/L
  SODIUM: 148.5 MEQ/L
  TOTAL BILIRUBIN: 1.13 mg/dL
  TOTAL PROTEIN: 6.87 G/DL
[2]
  BASOPHIL: 0%
  EOSINOPHIL: 0.2%
  ERYTHROCYTE COUNT: 6.02 x10E6/uL
  HEMATOCRIT: 36.48%
  HEMOGLOBIN: 14.38 G/DL
  LEUKOCYTE COUNT: 12.34 x10E3/uL
  LYMPHOCYTE: 83%
  MEAN CORPUSCULAR HEMOGLOBIN: 23.92 pg
  MEAN CORPUSCULAR HEMOGLOBIN CONCENTRATION: 39.44 G/DL
  MEAN CORPUSCULAR VOLUME: 60.66 fL
  MONOCYTE: 3%
  NEUTROPHIL: 13.8%
  PLATELET COUNT: 1190.6 x10E3/uL
  ALANINE AMINOTRANSFERASE: 43 u/L
  ALBUMIN: 3.73 G/DL
  ALKALINE PHOSPHATASE: 393 u/L
  ASPARTATE AMINOTRANSFERASE: 62.33 u/L
  BLOOD UREA NITROGEN: 16.33 mg/dL
  CHLORIDE: 101.67 MEQ/L
  CHOLESTEROL: 65.5 mg/dL
  CREATINE PHOSPHOKINASE: 130.67 u/L
  CREATININE: 0.58 mg/dL
  GLUCOSE: 180.67 mg/dL
  PHOSPHORUS: 11.28 mg/dL
  POTASSIUM: 7.05 MEQ/L
  SODIUM: 148.17 MEQ/L
  TOTAL BILIRUBIN: 0.72 mg/dL
  TOTAL PROTEIN: 6.83 G/DL
[3]
  BASOPHIL: 0%
  EOSINOPHIL: 0.5%
  ERYTHROCYTE COUNT: 6.33 x10E6/uL
  HEMATOCRIT: 38.05%
  HEMOGLOBIN: 15.05 G/DL
  LEUKOCYTE COUNT: 12.85 x10E3/uL
  LYMPHOCYTE: 83.5%
  MEAN CORPUSCULAR HEMOGLOBIN: 23.8 pg
  MEAN CORPUSCULAR HEMOGLOBIN CONCENTRATION: 39.55 G/DL
  MEAN CORPUSCULAR VOLUME: 60.15 fL
  MONOCYTE: 3.5%
  NEUTROPHIL: 12.5%
  PLATELET COUNT: 1304.5 x10E3/uL
  ALANINE AMINOTRANSFERASE: 36.5 u/L
  ALBUMIN: 3.7 G/DL
  ALKALINE PHOSPHATASE: 313 u/L
  ASPARTATE AMINOTRANSFERASE: 61.5 u/L
  BLOOD UREA NITROGEN: 12 mg/dL
  CHLORIDE: 101 MEQ/L
  CHOLESTEROL: 59 mg/dL
  CREATINE PHOSPHOKINASE: 136 u/L
  CREATININE: 0.55 mg/dL
  GLUCOSE: 210.5 mg/dL
  PHOSPHORUS: 13 mg/dL
  POTASSIUM: 6.85 MEQ/L
  SODIUM: 151 MEQ/L
  TOTAL BILIRUBIN: 0.35 mg/dL

From ChEMBL document CHEMBL3885881, “DrugMatrix”
